{"source": "patent US12371454B2", "about": "“Cyclic peptide compound having Kras inhibitory action” (priority 2019, dated 2025)", "note": "Starred links: 1 amine or outer side, 2 acyl side, 3 side chain; linkers in the order of their positions; H or OH if unused. Positions of bridges follow the written chain, without caps; N, C: chain ends. Non-standard residues stand in square brackets, D forms with d. Residues, ends and D or L forms follow the SMILES beside them. *: point of attachment. hPhe(3-Cl-4-CF3) = N[C@@H](CCc1ccc(C(F)(F)F)c(Cl)c1)C(=O)O; NMePhe(4-CF3) = CN[C@@H](Cc1ccc(C(F)(F)F)cc1)C(=O)O; NEtPhe(4-Me) = CCN[C@@H](Cc1ccc(C)cc1)C(=O)O; NMePhe(4-Me) = CN[C@@H](Cc1ccc(C)cc1)C(=O)O; NMePhe(4-F) = CN[C@@H](Cc1ccc(F)cc1)C(=O)O; NMedβ3hAla = C[C@H](CC(=O)[*:2])N(C)[*:1]; Leu(4,5-dehydro) = C=C(C)C[C@H](N)C(=O)O; NMeAla(cPent) = CN[C@@H](CC1CCCC1)C(=O)O; NMeGly(cPent) = CN[C@H](C(=O)O)C1CCCC1; Phe(3-I) = N[C@@H](Cc1cccc(I)c1)C(=O)O; Pro(4,4-F2) = O=C(O)[C@@H]1CC(F)(F)CN1; NMe3Pal = CN[C@@H](Cc1cccnc1)C(=O)O; NMeCha = CN[C@@H](CC1CCCCC1)C(=O)O; NMehLeu = CN[C@@H](CCC(C)C)C(=O)O; Hyp = O=C(O)[C@@H]1C[C@@H](O)CN1; NMeI = CC[C@H](C)[C@H](NC)C(=O)O; N(CH2CH2)2CF2 = FC1(F)CCN(*)CC1; NMeD = CN[C@@H](CC(=O)O)C(=O)O; NMeL = CN[C@@H](CC(C)C)C(=O)O; NMeV = CN[C@H](C(=O)O)C(C)C; d(β3hA) = C[C@@H](N)CC(=O)O; Morpholide = C1CN(*)CCO1; NMeA = CN[C@@H](C)C(=O)O; NMeAib = CNC(C)(C)C(=O)O; Piperidide = C1CCN(*)CC1; dNMeA = CN[C@H](C)C(=O)O; Ac5c = NC1(C(=O)O)CCCC1; Aze = O=C(O)[C@@H]1CCN1; Ac4c = NC1(C(=O)O)CCC1; Sar = CNCC(=O)O", "data": [{"biological_target": "T1, Kras and SOS1 (biotin-tagged human Kras loaded with GDP, His-tagged human SOS1) (Homo sapiens, UniProt P01116, G12D)", "T1 construct": "made in house; host or cells: E. coli (stated for Kras only)", "T1 sequence (P01116 1-188 isoform P01116-2 G12D)": "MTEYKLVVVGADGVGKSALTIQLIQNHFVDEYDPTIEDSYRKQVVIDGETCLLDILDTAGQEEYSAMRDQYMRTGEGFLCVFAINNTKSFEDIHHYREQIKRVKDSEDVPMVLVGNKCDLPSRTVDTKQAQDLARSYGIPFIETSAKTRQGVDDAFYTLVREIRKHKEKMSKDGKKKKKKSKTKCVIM", "experiment": "Protein-protein interaction inhibition between Kras and SOS1 (KrasGl2D-SOS PPI) using AlphaScreen", "type": "binding", "conditions": "AlphaScreen; biotin-tagged human Kras loaded with GDP, His-tagged human SOS1; read-out: KRAS G12D-SOS PPI IC50", "outline": "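Kras was produced in E. coli, purified, then loaded with GDP. It was paired via streptavidin acceptor beads with His-SOS1 held on nickel donor beads, and proximity signal at 520-620 nm was read after 680 nm illumination.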", "units": {"IC50": "nM"}, "values": [{"smiles": "CC[C@H](C)[C@@H]1NC(=O)[C@H](CCC(C)C)N(C)C(=O)C[C@@H](C(=O)N(C)C)N(C)C(=O)[C@H](C2CCCC2)N(C)C(=O)C2(CCCC2)NC(=O)[C@@H]2CCCN2C(=O)[C@H](CCc2ccc(C(F)(F)F)c(Cl)c2)NC(=O)CN(C)C(=O)[C@H](Cc2ccc(C)cc2)N(C)C(=O)[C@@H]2CCN2C(=O)[C@H](C)NC1=O", "note": "[Compound 303, (5S,8S,11S,15S,18S,23aS,29S,35S,37aS)-8-((S)-sec-butyl)-29-(3-chloro-4-(trifluoromethyl)phenethyl)-18-cyclopentyl-11-isopentyl-N,N,5,12,16,19,33,36-octamethyl-35-(4-methylbenzyl)-4,7,10,13,17,20,23,28,31,34,37-undecaoxotetratriacontahydro-2H,4H-spiro[azeto[2,1-u]pyrrolo[2,1-i][1,4,7,10,13,16,19,22,25,28,31]undecaazacyclotetratriacontine-21,1′-cyclopentane]-15-carboxamide] ([NMehLeu]IA[Aze][NMePhe(4-Me)][Sar][hPhe(3-Cl-4-CF3)]P[Ac5c][NMeGly(cPent)][NMeD]-NMe2; lactam N-11)", "IC50": 0.68}, {"smiles": "CC[C@H](C)[C@@H]1NC(=O)[C@H](C)N(C)C(=O)C[C@@H](C)NC(=O)[C@H](C2CCCC2)N(C)C(=O)C2(CCCC2)NC(=O)[C@@H]2CCCN2C(=O)[C@H](CCc2ccc(C(F)(F)F)c(Cl)c2)NC(=O)CN(C)C(=O)[C@H](Cc2ccc(F)cc2)N(C)C(=O)[C@@H]2CCCN2C(=O)CN(C)C1=O", "note": "[Compound 146] (cyclo([Ac5c][NMeGly(cPent)][d(β3hA)][NMeA]I[Sar]P[NMePhe(4-F)][Sar][hPhe(3-Cl-4-CF3)]P))", "IC50": 4}, {"smiles": "CC[C@H](C)[C@@H]1NC(=O)[C@H](CC(C)C)N(C)C(=O)C[C@@H](C(=O)N2CCOCC2)N(C)C(=O)[C@H](C2CCCC2)N(C)C(=O)C2(CCCC2)NC(=O)[C@H](CC(=O)N2CCC(F)(F)CC2)N(C)C(=O)[C@H](CCc2ccc(C(F)(F)F)c(Cl)c2)NC(=O)CN(C)C(=O)[C@H](CC2CCCCC2)N(C)C(=O)[C@@H]2CCN2C(=O)[C@H](C)N(C)C1=O", "note": "[Compound 105] ([NMeL]I[NMeA][Aze][NMeCha][Sar][hPhe(3-Cl-4-CF3)][NMeD](N(CH2CH2)2CF2)[Ac5c][NMeGly(cPent)][NMeD]-Morpholide; lactam N-11)", "IC50": 5.3}, {"smiles": "C=C(C)C[C@@H]1NC(=O)[C@H](Cc2cccc(I)c2)NC(=O)CN(C)C(=O)[C@H](CC2CCCC2)N(C)C(=O)[C@@H]2CCN2C(=O)[C@H](C)N(C)C(=O)[C@H]([C@@H](C)CC)NC(=O)[C@H](CC(C)C)N(C)C(=O)C[C@@H](C(=O)N2CCCCC2)N(C)C(=O)[C@H](CC(C)C)NC(=O)C(C)(C)N(C)C1=O", "note": "[Compound 1405] ([NMeL]I[NMeA][Aze][NMeAla(cPent)][Sar][Phe(3-I)][Leu(4,5-dehydro)][NMeAib]L[NMeD]-Piperidide; lactam N-11)", "IC50": 82}, {"smiles": "CCO[C@@H]1C[C@H]2C(=O)NC3(CCC3)C(=O)N(C)[C@@H]([C@@H](C)CC)C(=O)N(C)[C@H](C)CC(=O)N(C)[C@@H](CC(C)C)C(=O)N[C@@H]([C@@H](C)CC)C(=O)N(C)[C@@H](C)C(=O)N3CC[C@H]3C(=O)N(CC)[C@@H](Cc3ccc(C)cc3)C(=O)N(C)CC(=O)N[C@@H](CCc3ccc(C(F)(F)F)c(Cl)c3)C(=O)N2C1", "note": "[Compound 626] (cyclo([Ac4c][NMeI][NMedβ3hAla][NMeL]I[NMeA][Aze][NEtPhe(4-Me)][Sar][hPhe(3-Cl-4-CF3)][Hyp](Et)))", "IC50": 2.4}, {"smiles": "CC[C@H](C)[C@@H]1NC(=O)[C@H](C2CCCC2)N(C)C(=O)C[C@@H](C)NC(=O)[C@H](C(C)C)N(C)C(=O)C2(CCCC2)NC(=O)[C@@H]2CCCN2C(=O)[C@H](CCc2ccc(C(F)(F)F)c(Cl)c2)NC(=O)CN(C)C(=O)[C@H](CC2CCCCC2)N(C)C(=O)CN(C)C(=O)CN(C)C1=O", "note": "[Compound 857] (cyclo([Ac5c][NMeV][d(β3hA)][NMeGly(cPent)]I[Sar][Sar][NMeCha][Sar][hPhe(3-Cl-4-CF3)]P))", "IC50": 17}, {"smiles": "CC[C@H](C)[C@@H]1NC(=O)[C@H](CC(C)C)N(C)C(=O)C[C@@H](C)N(C)C(=O)[C@H]([C@@H](C)CC)N(C)C(=O)C2(CCCC2)NC(=O)[C@@H]2CC(F)(F)CN2C(=O)[C@H](CCc2ccc(C(F)(F)F)c(Cl)c2)NC(=O)CN(C)C(=O)[C@H](Cc2ccc(C(F)(F)F)cc2)N(C)C(=O)CN(C)C(=O)CN(C)C1=O", "note": "[Compound 1003] (cyclo([Ac5c][NMeI][NMedβ3hAla][NMeL]I[Sar][Sar][NMePhe(4-CF3)][Sar][hPhe(3-Cl-4-CF3)][Pro(4,4-F2)]))", "IC50": 8.4}, {"smiles": "CC[C@H](C)[C@@H]1NC(=O)[C@H](C)N(C)C(=O)C[C@@H](C)NC(=O)[C@H](C2CCCC2)N(C)C(=O)C2(CCCC2)NC(=O)[C@@H]2CCCN2C(=O)[C@H](CCc2ccc(C(F)(F)F)c(Cl)c2)NC(=O)[C@@H](C)N(C)C(=O)[C@H](Cc2cccnc2)N(C)C(=O)CN(C)C(=O)CN(C)C1=O", "note": "[Compound 919] (cyclo([Ac5c][NMeGly(cPent)][d(β3hA)][NMeA]I[Sar][Sar][NMe3Pal][dNMeA][hPhe(3-Cl-4-CF3)]P))", "IC50": 52}]}]}
